Measurements reported in US20090304692A1, “TRIAZINE COMPOUNDS AS PI3 KINASE AND MTOR INHIBITORS” (Wyeth, priority 2008, published 2009).
pIC50: −log10 of the molar value. Read-outs that look alike come from different tables or passages of the source.

How the values were obtained:
Human mTOR (FLAG-TOR) = Human mTOR (FLAG-TOR) (Homo sapiens, UniProt P42345); assay: mTOR kinase assay (DELFIA format, purified enzyme); assay type: biochemical; conditions: read-out: IC50 mTOR
PI3K-α = PI3K-α (Homo sapiens, UniProt P42336); assay: PI3K-alpha fluorescence polarization assay; conditions: read-out: IC50 PI3Kα
PI3K-γ = PI3K-γ (Homo sapiens, UniProt P48736); assay: PI3K-gamma fluorescence polarization assay
[1] = system: human prostate LNCap tumor cell line; assay: In vitro cell culture growth assay (MTS), LNCap; conditions: Homo sapiens, LNCaP, 72 h, read-out: IC50 LNCap

Sequence of PI3K-α (P42336 whole entry, species assumed): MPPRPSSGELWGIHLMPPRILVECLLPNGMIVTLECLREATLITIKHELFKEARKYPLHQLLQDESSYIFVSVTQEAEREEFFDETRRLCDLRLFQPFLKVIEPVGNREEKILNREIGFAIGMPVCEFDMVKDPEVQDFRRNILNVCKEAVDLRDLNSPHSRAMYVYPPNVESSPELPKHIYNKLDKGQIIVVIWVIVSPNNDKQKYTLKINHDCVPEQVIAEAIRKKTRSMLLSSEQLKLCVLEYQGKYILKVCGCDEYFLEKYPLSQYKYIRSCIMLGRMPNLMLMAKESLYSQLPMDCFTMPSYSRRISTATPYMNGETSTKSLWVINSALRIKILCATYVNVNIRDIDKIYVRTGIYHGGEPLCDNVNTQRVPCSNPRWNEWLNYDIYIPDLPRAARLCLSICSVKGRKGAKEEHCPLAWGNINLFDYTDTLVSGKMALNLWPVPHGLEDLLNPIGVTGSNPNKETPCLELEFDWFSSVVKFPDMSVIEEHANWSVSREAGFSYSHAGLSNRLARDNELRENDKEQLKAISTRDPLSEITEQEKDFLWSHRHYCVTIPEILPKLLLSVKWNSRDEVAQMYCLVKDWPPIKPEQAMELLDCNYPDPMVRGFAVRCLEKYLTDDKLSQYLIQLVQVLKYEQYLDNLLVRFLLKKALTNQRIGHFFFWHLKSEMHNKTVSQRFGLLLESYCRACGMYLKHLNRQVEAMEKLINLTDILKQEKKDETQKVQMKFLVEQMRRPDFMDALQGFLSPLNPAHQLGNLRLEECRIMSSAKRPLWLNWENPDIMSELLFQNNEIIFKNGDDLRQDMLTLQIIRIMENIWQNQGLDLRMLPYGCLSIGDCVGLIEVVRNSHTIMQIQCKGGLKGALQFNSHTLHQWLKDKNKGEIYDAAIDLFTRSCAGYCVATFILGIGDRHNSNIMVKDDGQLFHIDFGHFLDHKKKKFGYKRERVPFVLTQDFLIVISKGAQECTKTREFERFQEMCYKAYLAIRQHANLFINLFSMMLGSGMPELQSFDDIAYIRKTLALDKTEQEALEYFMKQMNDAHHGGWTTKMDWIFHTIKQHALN
Sequence of PI3K-α (P27986 whole entry partner, species assumed): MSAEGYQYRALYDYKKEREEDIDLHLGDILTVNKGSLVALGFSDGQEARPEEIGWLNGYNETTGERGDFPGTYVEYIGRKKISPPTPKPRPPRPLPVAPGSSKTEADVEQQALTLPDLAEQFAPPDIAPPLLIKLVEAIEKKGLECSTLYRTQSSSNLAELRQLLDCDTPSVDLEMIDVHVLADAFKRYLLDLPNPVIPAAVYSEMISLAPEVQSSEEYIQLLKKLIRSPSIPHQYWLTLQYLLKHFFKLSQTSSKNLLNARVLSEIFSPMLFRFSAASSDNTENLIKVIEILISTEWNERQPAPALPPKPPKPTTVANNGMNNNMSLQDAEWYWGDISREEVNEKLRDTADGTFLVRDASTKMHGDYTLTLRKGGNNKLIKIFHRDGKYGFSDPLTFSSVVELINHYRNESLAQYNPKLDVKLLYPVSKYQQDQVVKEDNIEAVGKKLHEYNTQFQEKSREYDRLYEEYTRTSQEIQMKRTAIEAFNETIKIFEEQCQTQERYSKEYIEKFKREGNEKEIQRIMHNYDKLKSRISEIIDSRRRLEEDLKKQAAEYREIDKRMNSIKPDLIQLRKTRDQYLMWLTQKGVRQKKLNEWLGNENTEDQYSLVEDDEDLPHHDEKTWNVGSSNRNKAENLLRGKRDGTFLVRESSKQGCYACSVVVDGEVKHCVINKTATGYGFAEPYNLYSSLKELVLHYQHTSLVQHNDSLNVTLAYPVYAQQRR
Sequence of PI3K-γ (P48736 whole entry, species assumed): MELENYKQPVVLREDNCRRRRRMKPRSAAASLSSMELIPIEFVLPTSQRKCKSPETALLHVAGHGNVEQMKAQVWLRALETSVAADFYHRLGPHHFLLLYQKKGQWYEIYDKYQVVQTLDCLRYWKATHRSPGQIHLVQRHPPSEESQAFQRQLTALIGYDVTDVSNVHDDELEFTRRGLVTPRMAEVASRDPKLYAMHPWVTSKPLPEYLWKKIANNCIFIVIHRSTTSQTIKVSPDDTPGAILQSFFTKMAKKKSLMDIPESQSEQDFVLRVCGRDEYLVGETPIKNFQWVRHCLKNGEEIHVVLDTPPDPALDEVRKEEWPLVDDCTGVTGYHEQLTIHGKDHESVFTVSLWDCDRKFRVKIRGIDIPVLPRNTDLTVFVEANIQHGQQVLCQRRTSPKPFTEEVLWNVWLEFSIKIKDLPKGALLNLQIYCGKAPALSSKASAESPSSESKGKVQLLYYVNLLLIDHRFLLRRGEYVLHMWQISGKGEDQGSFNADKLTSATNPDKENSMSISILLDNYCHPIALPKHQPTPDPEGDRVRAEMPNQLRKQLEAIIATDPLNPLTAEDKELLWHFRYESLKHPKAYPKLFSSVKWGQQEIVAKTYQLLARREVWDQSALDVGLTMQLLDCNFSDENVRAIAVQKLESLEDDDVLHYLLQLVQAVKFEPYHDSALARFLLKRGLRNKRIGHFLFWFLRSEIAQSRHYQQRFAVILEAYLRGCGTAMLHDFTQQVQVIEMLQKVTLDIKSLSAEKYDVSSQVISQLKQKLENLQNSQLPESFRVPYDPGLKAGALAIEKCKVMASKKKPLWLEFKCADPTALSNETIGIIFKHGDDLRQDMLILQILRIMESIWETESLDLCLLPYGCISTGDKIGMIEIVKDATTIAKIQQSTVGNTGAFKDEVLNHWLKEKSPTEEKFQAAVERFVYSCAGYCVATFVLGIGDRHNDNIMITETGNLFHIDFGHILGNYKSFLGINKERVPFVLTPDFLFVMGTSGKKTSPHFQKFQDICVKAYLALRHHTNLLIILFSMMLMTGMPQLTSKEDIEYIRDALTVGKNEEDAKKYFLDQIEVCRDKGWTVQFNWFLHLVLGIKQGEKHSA
Sequence of Human mTOR (FLAG-TOR) (P42345 1360-2549 limits assumed): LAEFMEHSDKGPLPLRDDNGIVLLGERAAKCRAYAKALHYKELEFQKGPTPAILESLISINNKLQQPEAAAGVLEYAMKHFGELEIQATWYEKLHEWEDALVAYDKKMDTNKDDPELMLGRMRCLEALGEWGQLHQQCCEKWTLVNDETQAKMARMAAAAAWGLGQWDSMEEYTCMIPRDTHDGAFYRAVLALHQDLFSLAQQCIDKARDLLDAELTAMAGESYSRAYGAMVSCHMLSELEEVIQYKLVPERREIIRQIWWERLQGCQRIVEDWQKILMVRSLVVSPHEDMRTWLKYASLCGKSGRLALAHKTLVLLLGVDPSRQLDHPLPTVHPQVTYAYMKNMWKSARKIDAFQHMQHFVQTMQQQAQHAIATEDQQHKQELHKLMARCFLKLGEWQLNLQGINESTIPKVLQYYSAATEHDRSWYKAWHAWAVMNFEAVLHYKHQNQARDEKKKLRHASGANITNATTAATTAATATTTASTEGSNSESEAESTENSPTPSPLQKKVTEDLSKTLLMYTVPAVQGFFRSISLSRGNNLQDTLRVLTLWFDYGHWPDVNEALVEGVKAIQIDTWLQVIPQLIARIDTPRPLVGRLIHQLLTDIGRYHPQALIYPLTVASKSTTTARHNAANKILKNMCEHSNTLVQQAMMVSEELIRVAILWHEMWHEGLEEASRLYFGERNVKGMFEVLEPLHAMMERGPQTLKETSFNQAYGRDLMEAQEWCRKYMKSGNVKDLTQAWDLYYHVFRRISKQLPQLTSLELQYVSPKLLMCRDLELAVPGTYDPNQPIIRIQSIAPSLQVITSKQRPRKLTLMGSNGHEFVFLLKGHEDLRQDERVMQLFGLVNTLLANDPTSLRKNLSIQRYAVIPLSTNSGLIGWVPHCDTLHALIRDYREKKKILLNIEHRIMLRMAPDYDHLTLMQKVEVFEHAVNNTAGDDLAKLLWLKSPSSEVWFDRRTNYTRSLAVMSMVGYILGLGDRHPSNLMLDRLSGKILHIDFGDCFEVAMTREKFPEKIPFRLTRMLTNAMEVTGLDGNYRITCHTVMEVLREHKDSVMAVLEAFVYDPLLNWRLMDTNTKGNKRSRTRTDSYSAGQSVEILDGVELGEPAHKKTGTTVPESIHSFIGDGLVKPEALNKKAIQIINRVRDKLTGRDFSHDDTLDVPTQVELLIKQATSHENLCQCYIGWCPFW

| SMILES | pIC50 (Human mTOR (FLAG-TOR)) | pIC50 (PI3K-α) | pIC50 (PI3K-γ) | pIC50 [1] | pIC50 (PI3K-γ; read-out: IC50 PI3Kγ) |
| --- | --- | --- | --- | --- | --- |
| CCNC(=O)Nc1ccc(-c2nc(NC3CCNCC3)nc(N3C4CCC3COC4)n2)cc1 [Example 360, 1-(4-(4-(3-oxa-8-azabicyclo[3.2.1]octan-8-yl)-6-(piperidin-4-ylamino)-1,3,5-triazin-2-yl)phenyl)-3-ethylurea] | 7.09 | 5.18 | < 5.00 | 5.00 | – |
| O=C(Nc1ccc(CN2CCNCC2)cc1)Nc1ccc(-c2nc(N3C4CCC3COC4)nc(N3C4CCC3COC4)n2)cc1 [Example 366, 1-(4-(4,6-di(3-oxa-8-azabicyclo[3.2.1]octan-8-yl)-1,3,5-triazin-2-yl)phenyl)-3-(4-(piperazin-1-ylmethyl)phenyl)urea] | 8.96 | 6.23 | – | 8.55 | 5.52 |
| NCc1ccc(NC(=O)Nc2ccc(-c3nc(N4C5CCC4COC5)nc(N4C5CCC4COC5)n3)cc2)cc1 [Example 368, 1-(4-(aminomethyl)phenyl)-3-(4-(4,6-di(3-oxa-8-azabicyclo[3.2.1]octan-8-yl)-1,3,5-triazin-2-yl)phenyl)urea] | 9.17 | 6.96 | – | 9.15 | 5.71 |
| O=C(Nc1ccc(CN2CCCC2)cc1)Nc1ccc(-c2nc(N3C4CCC3COC4)nc(N3C4CCC3COC4)n2)cc1 [Example 369, 1-(4-(4,6-di(3-oxa-8-azabicyclo[3.2.1]octan-8-yl)-1,3,5-triazin-2-yl)phenyl)-3-(4-(pyrrolidin-1-ylmethyl)phenyl)urea] | 8.89 | 6.44 | – | 8.52 | 5.59 |
| CN(C)CC(=O)Nc1ccc(NC(=O)Nc2ccc(-c3nc(N4C5CCC4COC5)nc(N4C5CCC4COC5)n3)cc2)cc1 [Example 373, N-(4-(3-(4-(4,6-di(3-oxa-8-azabicyclo[3.2.1]octan-8-yl)-1,3,5-triazin-2-yl)phenyl)ureido)phenyl)-2-(dimethylamino)acetamide] | 9.80 | 7.15 | – | 9.00 | 5.53 |
| CN1CCN(CC(=O)Nc2ccc(NC(=O)Nc3ccc(-c4nc(N5C6CCC5COC6)nc(N5C6CCC5COC6)n4)cc3)cc2)CC1 [Example 374, N-(4-(3-(4-(4,6-di(3-oxa-8-azabicyclo[3.2.1]octan-8-yl)-1,3,5-triazin-2-yl)phenyl)ureido)phenyl)-2-(4-methylpiperazin-1-yl)acetamide] | 9.85 | 7.19 | – | > 9.10 | 5.41 |
| O=C(CN1CCCC1)Nc1ccc(NC(=O)Nc2ccc(-c3nc(N4C5CCC4COC5)nc(N4C5CCC4COC5)n3)cc2)cc1 [Example 375, N-(4-(3-(4-(4,6-di(3-oxa-8-azabicyclo[3.2.1]octan-8-yl)-1,3,5-triazin-2-yl)phenyl)ureido)phenyl)-2-(pyrrolidin-1-yl)acetamide] | 9.82 | 7.36 | – | > 9.10 | 5.59 |
| CC(C)Nc1nc(-c2ccc(NC(=O)Nc3cccnc3)cc2)nc(N2C3CCC2COC3)n1 [Example 376, 1-(4-(4-(3-oxa-8-azabicyclo[3.2.1]octan-8-yl)-6-(isopropylamino)-1,3,5-triazin-2-yl)phenyl)-3-(pyridin-3-yl)urea] | 8.64 | 5.58 | < 5.00 | 7.30 | – |
| CC(C)Nc1nc(-c2ccc(NC(=O)Nc3ccncc3)cc2)nc(N2C3CCC2COC3)n1 [Example 377, 1-(4-(4-(3-oxa-8-azabicyclo[3.2.1]octan-8-yl)-6-(isopropylamino)-1,3,5-triazin-2-yl)phenyl)-3-(pyridin-4-yl)urea] | 8.41 | 5.58 | – | 7.05 | 5.33 |
| CC(C)Nc1nc(-c2ccc(NC(=O)Nc3ccc(CN4CCN(C)CC4)cc3)cc2)nc(N2C3CCC2COC3)n1 [Example 379, 1-(4-(4-(3-oxa-8-azabicyclo[3.2.1]octan-8-yl)-6-(isopropylamino)-1,3,5-triazin-2-yl)phenyl)-3-(4-((4-methylpiperazin-1-yl)methyl)phenyl)urea] | 8.14 | 5.32 | – | 6.85 | 5.28 |
| CC(C)Nc1nc(-c2ccc(NC(=O)Nc3ccc(CN4CCNCC4)cc3)cc2)nc(N2C3CCC2COC3)n1 [Example 380, 1-(4-(4-(3-oxa-8-azabicyclo[3.2.1]octan-8-yl)-6-(isopropylamino)-1,3,5-triazin-2-yl)phenyl)-3-(4-(piperazin-1-ylmethyl)phenyl)urea] | 8.29 | 5.48 | – | 6.52 | 5.45 |
| CC(C)Nc1nc(-c2ccc(NC(=O)Nc3ccc(CN(C)C)cc3)cc2)nc(N2C3CCC2COC3)n1 [Example 381, 1-(4-(4-(3-oxa-8-azabicyclo[3.2.1]octan-8-yl)-6-(isopropylamino)-1,3,5-triazin-2-yl)phenyl)-3-(4-((dimethylamino)methyl)phenyl)urea] | 8.23 | 5.53 | – | 6.85 | 5.27 |
| CC(C)Nc1nc(-c2ccc(NC(=O)Nc3ccc(CN)cc3)cc2)nc(N2C3CCC2COC3)n1 [Example 382, 1-(4-(4-(3-oxa-8-azabicyclo[3.2.1]octan-8-yl)-6-(isopropylamino)-1,3,5-triazin-2-yl)phenyl)-3-(4-(aminomethyl)phenyl)urea] | 8.35 | 6.28 | – | 7.32 | 5.37 |
| CC(C)Nc1nc(-c2ccc(NC(=O)Nc3ccc(CN4CCCC4)cc3)cc2)nc(N2C3CCC2COC3)n1 [Example 383, 1-(4-(4-(3-oxa-8-azabicyclo[3.2.1]octan-8-yl)-6-(isopropylamino)-1,3,5-triazin-2-yl)phenyl)-3-(4-(pyrrolidin-1-ylmethyl)phenyl)urea] | 8.21 | 5.53 | – | 6.82 | 5.44 |
| CC(C)Nc1nc(-c2ccc(NC(=O)Nc3ccc(OCCN4CCCC4)cc3)cc2)nc(N2C3CCC2COC3)n1 [Example 384, 1-(4-(4-(3-oxa-8-azabicyclo[3.2.1]octan-8-yl)-6-(isopropylamino)-1,3,5-triazin-2-yl)phenyl)-3-(4-(2-(pyrrolidin-1-yl)ethoxy)phenyl)urea] | 8.19 | 5.37 | – | 7.30 | 5.27 |
| CC(C)Nc1nc(-c2ccc(NC(=O)Nc3ccc(OCCN(C)C)cc3)cc2)nc(N2C3CCC2COC3)n1 [Example 385, 1-(4-(4-(3-oxa-8-azabicyclo[3.2.1]octan-8-yl)-6-(isopropylamino)-1,3,5-triazin-2-yl)phenyl)-3-(4-(2-(dimethylamino)ethoxy)phenyl)urea] | 8.24 | 5.47 | – | 7.15 | 5.33 |
| CC(C)Nc1nc(-c2ccc(NC(=O)Nc3ccc(N4CCNCC4)cc3)cc2)nc(N2C3CCC2COC3)n1 [Example 387, 1-(4-(4-(3-oxa-8-azabicyclo[3.2.1]octan-8-yl)-6-(isopropylamino)-1,3,5-triazin-2-yl)phenyl)-3-(4-(piperazin-1-yl)phenyl)urea] | 8.49 | 5.47 | – | 7.15 | 5.54 |
| CC(C)Nc1nc(-c2ccc(NC(=O)Nc3ccc(N4CCC(N(C)C)CC4)cc3)cc2)nc(N2C3CCC2COC3)n1 [Example 388, 1-(4-(4-(3-oxa-8-azabicyclo[3.2.1]octan-8-yl)-6-(isopropylamino)-1,3,5-triazin-2-yl)phenyl)-3-(4-(4-(dimethylamino)piperidin-1-yl)phenyl)urea] | 8.32 | 5.46 | – | 6.96 | 5.37 |
